Test results taken from patent publication US6653306B1, “Epoxy-steroidal aldosterone antagonist and angiotensin II antagonist combination therapy” (G.D. Searle & Co., priority 1995, dated 2003).

molecular target: angiotensin II AT1 receptor; test: Assay A: Angiotensin II binding activity (125I-AII displacement, rat uterine membrane preparation)
Description: Assay A: Antiotensin II Binding Activity
Compounds of the invention were tested for ability to bind to the smooth muscle angiotensin II receptor using a rat uterine membrane preparation. […] Rat uterine membranes were prepared from fresh tissue. All procedures were carried out at 4° C. Uteri were stripped of fat and homogenized in phosphate-buffered saline at pH 7.4 containing 5 mM EDTA. The homogenate was centrifuged at 1500×g for 20 min., and the supernatant was recentrifuged at 100,000×g for 60 min. The pellet was resuspended in buffer consisting of 2 mM EDTA and 50 mM Tris-HCl (pH 7.5) to a final protein concentration of 4 mg/ml. […] The reaction was initiated by the addition of membrane protein and the mixture was incubated at 25° C. for 60 min. The incubation was terminated with ice-cold 50 mM Tris-HCl (pH 7.5) and the mixture was filtered to separate membrane-bound labelled peptide from the free ligand. The incubation tube and filter were washed with ice-cold buffer. Filters were assayed for radioactivity in a Micromedic gamma counter.
Nonspecific binding was defined as binding in the presence of 10 μM of unlabelled AII. Specific binding was calculated as total binding minus nonspecific binding. […] Binding data were analyzed by a nonlinear least-squares curve fitting program.

| SMILES | IC50 |
| --- | --- |
| CCCCc1nc(C(OC)OC)n(Cc2ccc(-c3ccccc3-c3nnn[nH]3)cc2)n1 [Compound 23] | 430 nM |
| CCCCCCCCc1nc(CCCC)nn1Cc1ccc(-c2ccccc2-c2nnn[nH]2)cc1 [Compound 28] | 570 nM |
| CCCCCCCCc1nc(CCCC)n(Cc2ccc(-c3ccccc3-c3nnn[nH]3)cc2)n1 [Compound 29] | 160 nM |
| CCCCc1nc(CNC(=O)OC(C)(C)C)n(Cc2ccc(-c3ccccc3-c3nnn[nH]3)cc2)n1 [Compound 34] | 640 nM |
| CCCCc1nc(CC(OCC)OCC)nn1Cc1ccc(-c2ccccc2-c2nnn[nH]2)cc1 [Compound 38] | 10 nM |
| CCCCc1nc(CCC2CCCCC2)nn1Cc1ccc(-c2ccccc2-c2nnn[nH]2)cc1 [Compound 43] | 19 nM |
| CCCCc1nc(C(F)F)n(Cc2ccc(-c3ccccc3-c3nnn[nH]3)cc2)n1 [Compound 48] | 680 nM |
| CCCCc1nc(C23CC4CC(CC(C4)C2)C3)n(Cc2ccc(-c3ccccc3-c3nnn[nH]3)cc2)n1 [Compound 55] | 80 nM |
| CCCCc1nc(C23CC4CC(CC(C4)C2)C3)nn1Cc1ccc(-c2ccccc2-c2nnn[nH]2)cc1 [Compound 56] | 5 nM |
| CCCCc1nc(CC23CC4CC(CC(C4)C2)C3)n(Cc2ccc(-c3ccccc3-c3nnn[nH]3)cc2)n1 [Compound 61] | 110 nM |
| CCCCc1nc(C2CCCCC2)nn1Cc1ccc(-c2ccccc2-c2nnn[nH]2)cc1 [Compound 66] | 12 nM |
| CCCCc1nc(CCCNC(=O)OC(C)(C)C)nn1Cc1ccc(-c2ccccc2-c2nnn[nH]2)cc1 [Compound 68] | 8.6 nM |
| CCCCc1nc(C(F)(F)C(F)(F)F)nn1Cc1ccc(-c2ccccc2-c2nnn[nH]2)cc1 [Compound 69] | 15 nM |
| CCCCc1nc(CC)nn1Cc1ccc(-c2ccccc2C(=O)O)cc1 [Compound 75] | 570 nM |
| CCCCc1nn(/C(Cc2ccccc2)=C(/OCc2ccccc2)c2ccccc2)c(=O)n1Cc1ccc(-c2ccccc2-c2nn[nH]n2)cc1 [Compound 93] | 480 nM |
| CCCCc1nn(C(Cc2ccccc2)C(=O)c2ccccc2)c(=O)n1Cc1ccc(-c2ccccc2-c2nn[nH]n2)cc1 (stereo not shown) [Compound 94] | 5800 nM |
| CCCCc1nn(CCCCC(=O)OC)c(=O)n1Cc1ccc(-c2ccccc2-c2nn[nH]n2)cc1 [Compound 100] | 4.4 nM |
| CCCCc1nn(C/C=C/c2ccccc2)c(=O)n1Cc1ccc(-c2ccccc2-c2nn[nH]n2)cc1 [Compound 105] | 290 nM |
| CCCCCc1nc(Cc2ccc(-c3ccccc3-c3nnn[nH]3)nc2)n(CCCC)n1 [Compound 156] | 78 nM |
| CCCCn1nc(C(F)CCC)nc1Cc1ccc(-c2ccccc2-c2nnn[nH]2)nc1 (stereo not shown) [Compound 161] | 28 nM |
| CCn1nc(C(C)(F)F)nc1Cc1ccc(-c2ccccc2-c2nnn[nH]2)nc1 [Compound 164] | 1700 nM |
| CCCCn1nc(C(=O)NC(C)(C)C)nc1Cc1ccc(-c2ccccc2-c2nnn[nH]2)nc1 [Compound 173] | 90 nM |
| CCCCn1nc(C(OCCC)OCCC)nc1Cc1ccc(-c2ccccc2-c2nnn[nH]2)nc1 [Compound 177] | 26 nM |

| SMILES | IC50 |
| --- | --- |
| CCCCn1nc(C(C)(OC)OC)nc1Cc1ccc(-c2ccccc2-c2nnn[nH]2)nc1 [Compound 182] | 59 nM |
| CCCn1cc(CC(C)C)n(Cc2ccc(-c3ccccc3-c3nnn[nH]3)nc2)c1=O [Compound 187] | 770 nM |
| CCCCn1cc(CC(C)C)n(Cc2ccc(-c3ccccc3-c3nnn[nH]3)nc2)c1=O [Compound 188] | 140 nM |
| CCCCn1cc(CCC(C)C)n(Cc2ccc(-c3ccccc3-c3nnn[nH]3)nc2)c1=O [Compound 189] | 29 nM |
| CCCCn1cc(C2CCCC2)n(Cc2ccc(-c3ccccc3-c3nnn[nH]3)nc2)c1=O [Compound 192] | 140 nM |
| CCCCc1cn(CC)c(=O)n1Cc1ccc(-c2ccccc2-c2nnn[nH]2)nc1 [Compound 195] | 34 nM |
| CCCCc1cn(CCC)c(=O)n1Cc1ccc(-c2ccccc2-c2nnn[nH]2)nc1 [Compound 196] | 31 nM |
| CCCCc1cn(CC(C)C)c(=O)n1Cc1ccc(-c2ccccc2-c2nnn[nH]2)nc1 [Compound 197] | 14 nM |
| CCCCc1cn(C2CCCC2)c(=O)n1Cc1ccc(-c2ccccc2-c2nnn[nH]2)nc1 [Compound 207] | 99 nM |
| CCCCc1cn(C2C3CC4CC(C3)C2C4)c(=O)n1Cc1ccc(-c2ccccc2-c2nnn[nH]2)nc1 (stereo not shown) [Compound 213] | 51 nM |
| CCCCc1cn(C23CC4CC(CC(C4)C2)C3)c(=O)n1Cc1ccc(-c2ccccc2-c2nnn[nH]2)nc1 [Compound 214] | 65 nM |
| CCCCc1cn(-c2c(C)cccc2C)c(=O)n1Cc1ccc(-c2ccccc2-c2nnn[nH]2)nc1 [Compound 222] | 5 nM |
| CCCCc1cn(CCCC)c(=O)n1Cc1ccc(-c2ncccc2-c2nnn[nH]2)cc1 [Compound 224] | 91 nM |
| CCCCc1cn(CCCC)c(=O)n1Cc1ccc(-c2cnccc2-c2nnn[nH]2)cc1 [Compound 225] | 160 nM |
| CCCCc1cn(CCCC)c(=O)n1Cc1ccc(-c2ccncc2-c2nnn[nH]2)cc1 [Compound 226] | 93 nM |
| CCCCc1cn(CCCC)c(=O)n1Cc1ccc(-c2cccnc2-c2nnn[nH]2)cc1 [Compound 227] | 89 nM |
| CCCCc1cn(-c2c(C)cc(C(C)(C)C)cc2C)c(=O)n1Cc1ccc(-c2ccccc2-c2nnn[nH]2)nc1 [Compound 233] | 84 nM |
| CCCCc1cn(-c2c(C(C)C)cccc2C(C)C)c(=O)n1Cc1ccc(-c2ccccc2-c2nnn[nH]2)nc1 [Compound 235] | 34 nM |
| CCCCc1cn(C2CCCCC2(C)C)c(=O)n1Cc1ccc(-c2ccccc2-c2nnn[nH]2)nc1 (stereo not shown) [Compound 237] | 3.6 nM |
| CCCCc1nc(CCCC)n(Cc2ccc(-c3ccccc3C(=O)O)nc2)n1 [Compound 240] | 120 nM |
| CCCCc1nc(CCCC)n(Cc2ccc(-c3cccnc3-c3nnn[nH]3)cc2)n1 [Compound 242] | 110 nM |
| CCCCc1nc(CCCC)n(Cc2ccc(-c3ccncc3-c3nnn[nH]3)cc2)n1 [Compound 243] | 250 nM |
| CCCCc1nc(CCCC)n(Cc2ccc(-c3ncccc3-c3nnn[nH]3)cc2)n1 [Compound 245] | 98 nM |

Further lines, results first:

| IC50 | SMILES |
| --- | --- |
| 87 nM | CCCCc1nc(-c2ccccc2)nn1Cc1ccc(-c2ccccc2-c2nnn[nH]2)cc1 [Compound 21] |
| 180 nM | CCCCc1nc(CN)nn1Cc1ccc(-c2ccccc2-c2nnn[nH]2)cc1 [Compound 27] |
| 14 nM | CCCCc1nc(C(=O)CCC)nn1Cc1ccc(-c2ccccc2-c2nnn[nH]2)cc1 [Compound 31] |
| 16 nM | CCCCc1nc(C)nn1Cc1ccc(-c2ccccc2-c2nnn[nH]2)cc1 [Compound 32] |
| 630 nM | CCCCc1nc(C)n(Cc2ccc(-c3ccccc3-c3nnn[nH]3)cc2)n1 [Compound 33] |
| 83 nM | CCCCc1nc(CC)n(Cc2ccc(-c3ccccc3-c3nnn[nH]3)cc2)n1 [Compound 40] |
| 16 nM | CCCCc1nc(Cc2ccccc2)nn1Cc1ccc(-c2ccccc2-c2nnn[nH]2)cc1 [Compound 44] |
| 120 nM | CCCCc1nc(CF)nn1Cc1ccc(-c2ccccc2-c2nnn[nH]2)cc1 [Compound 59] |
| 2200 nM | CCCCc1nc(CF)n(Cc2ccc(-c3ccccc3-c3nnn[nH]3)cc2)n1 [Compound 60] |
| 12000 nM | CCCCc1nc(CCCN)n(Cc2ccc(-c3ccccc3-c3nnn[nH]3)cc2)n1 [Compound 71] |
| 9.5 nM | CCCCn1nc(CCc2ccccc2)nc1Cc1ccc(-c2ccccc2-c2nnn[nH]2)cc1 [Compound 131] |
| 86 nM | CCCCCn1nc(CCCC)nc1Cc1ccc(-c2ccccc2-c2nnn[nH]2)nc1 [Compound 155] |
| 390 nM | CCCCn1nc(C(C)=O)nc1Cc1ccc(-c2ccccc2-c2nnn[nH]2)nc1 [Compound 183] |
| 47 nM | CCCCc1cn(C)c(=O)n1Cc1ccc(-c2ccccc2-c2nnn[nH]2)nc1 [Compound 194] |
| 45 nM | CCCCc1cn(-c2ccccc2)c(=O)n1Cc1ccc(-c2ccccc2-c2nnn[nH]2)nc1 [Compound 215] |
| 9 nM | CCCCc1cn(-c2ccccc2OC)c(=O)n1Cc1ccc(-c2ccccc2-c2nnn[nH]2)nc1 [Compound 218] |
| 14 nM | CCCCc1cn(-c2ccccc2C(C)C)c(=O)n1Cc1ccc(-c2ccccc2-c2nnn[nH]2)nc1 [Compound 219] |
| 25 nM | CCCCc1nc(CC(CC)CC)nn1Cc1ccc(-c2ccccc2-c2nnn[nH]2)nc1 [Compound 251] |
| 13 nM | CCCCc1nc(CC(CC)CC)n(Cc2ccc(-c3ccccc3-c3nnn[nH]3)nc2)n1 [Compound 252] |
| 2.6 nM | CCCCc1nc(CCc2ccccc2)nn1Cc1ccc(-c2ccccc2-c2nnn[nH]2)nc1 [Compound 253] |
| 72 nM | CCCCc1nc(CCc2ccccc2)n(Cc2ccc(-c3ccccc3-c3nnn[nH]3)nc2)n1 [Compound 254] |
| 54 nM | CCCCc1nc(-c2ccccc2)nn1Cc1ccc(-c2ccccc2-c2nnn[nH]2)nc1 [Compound 259] |
| 220 nM | CCCCc1nc(-c2ccccc2)n(Cc2ccc(-c3ccccc3-c3nnn[nH]3)nc2)n1 [Compound 260] |
| 18 nM | CCCCc1nc(-c2ccccc2C)nn1Cc1ccc(-c2ccccc2-c2nnn[nH]2)nc1 [Compound 261] |
| 57 nM | CCCCc1nc(-c2ccccc2C(C)C)nn1Cc1ccc(-c2ccccc2-c2nnn[nH]2)nc1 [Compound 263] |
| 11 nM | CCCCc1nc(-c2ccccc2C(C)C)n(Cc2ccc(-c3ccccc3-c3nnn[nH]3)nc2)n1 [Compound 264] |
| 110 nM | CCCCc1nc(-c2ccccc2OC)nn1Cc1ccc(-c2ccccc2-c2nnn[nH]2)nc1 [Compound 265] |
